This is an account of results in ChEMBL document CHEMBL1121737, “Synthesis and evaluation of some stable multisubstrate adducts as specific inhibitors of spermidine synthase” (J Med Chem, 1981).

Test [1] has as its target T1, Spermidine synthase (Rattus norvegicus) (UniProt Q99MI5).
T1 sequence (whole entry): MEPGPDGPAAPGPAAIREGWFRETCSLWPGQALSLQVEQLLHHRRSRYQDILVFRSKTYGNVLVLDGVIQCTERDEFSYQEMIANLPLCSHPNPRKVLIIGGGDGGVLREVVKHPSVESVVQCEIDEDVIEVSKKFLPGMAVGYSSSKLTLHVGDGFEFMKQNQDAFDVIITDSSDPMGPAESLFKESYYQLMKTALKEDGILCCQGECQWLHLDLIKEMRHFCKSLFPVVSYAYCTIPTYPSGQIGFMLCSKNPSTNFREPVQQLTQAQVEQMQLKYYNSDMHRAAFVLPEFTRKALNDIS
The experiment in a line: Inhibition of spermidine synthase at 25 uM concentration of the compound; values are per cent of control.

Test [2] has as its target T1, Spermidine synthase (Rattus norvegicus). Nature of the test: Inhibition of spermidine synthase at 50 uM concentration of the compound; values are per cent of control.
The target is the same in test [3]. Nature of the test: Inhibition of spermidine synthase at 100 uM concentration of the compound; values are per cent of control.
For test [4] the target is unchanged. Nature of the test: Inhibition of spermidine synthase at 10 uM concentration of the compound; values are per cent of control.
The test system of test [5] is spermine synthase (Rattus norvegicus). The experiment in a line: Inhibition of spermine synthase at 250 uM concentration of the compound; values are per cent of control.
Test [6] shares this test system. Nature of the test: Inhibition of spermine synthase at 25 uM concentration of the compound; values are per cent of control.
Test [7] shares this test system. Nature of the test: Inhibition of spermine synthase at 100 uM concentration of the compound; values are per cent of control.
The next test concerns the target T2, Spermidine synthase (Rattus norvegicus, UniProt Q99MI5).
T2 sequence (Q99MI5 whole entry): T1 sequence (whole entry)
The experiment in a line: Inhibitory activity against spermidine synthase. Particulars: read-out: I50.

For test [8], the system named is spermine synthase (Rattus norvegicus). The experiment in a line: Inhibition of spermine synthase at 10 uM concentration of the compound; values are per cent of control.
The target of test [9] is T1, Spermidine synthase (Rattus norvegicus). The experiment in a line: Inhibition of spermidine synthase at 250 uM concentration of the compound; values are per cent of control.
For test [10], the system named is spermine synthase (Rattus norvegicus). The experiment in a line: Inhibition of spermine synthase at 50 uM concentration of the compound; values are per cent of control.
Test [11] addresses T1, Spermidine synthase (Rattus norvegicus). Nature of the test: Inhibition of spermidine synthase at 5 uM concentration of the compound; values are per cent of control.

Each structure is given as a SMILES string.

What is called residual activity is the signal under treatment as a percentage of the control signal.

With `NCCCCCC(CCN)SC[C@H]1O[C@@H](n2cnc3c(N)ncnc32)[C@H](O)[C@@H]1O` (stereo partly drawn), the residual activity in test [1] came to 3%; in test [2], 1%; in [3], 1%; in test [4] it was 3%.

Take `CCCCCC(CC)[S+](C)C[C@H]1O[C@H](n2cnc3c(N)ncnc32)[C@H](O)[C@@H]1O` (stereo partly drawn): the residual activity in test [1] was determined as 99%; in test [5], 25%; in test [6], 88%; in test [2], 93%; in [7], 44%; in test [8] it was 94%. Also, the residual activity was 56% in test [9], 80% in test [3], 98% in [4] and 65% in [10]. For the same molecule, the IC50 on Spermidine synthase was determined as 250 µM.

With `CCCCCC(CC)SC[C@H]1OC(n2cnc3c(N)ncnc32)[C@H](O)[C@@H]1O` (stereo partly drawn), the residual activity in test [1] was determined as 102%; in test [3] it was 104%.

As to `C[S+](C[C@H]1O[C@H](n2cnc3c(N)ncnc32)[C@H](O)[C@@H]1O)C(CCN)CCCCCN` (stereo partly drawn), the residual activity in [1] stood at 31%; in [5], 14%; in [2], 16%; in [7], 41%; in test [8] it was 93%; in [9] it was 4%. The residual activity in [3] was 8%; in test [4] it was 68%; in [10], 60%; in [11], 84%. The IC50 at Spermidine synthase was determined as 15 µM.
